Measurements published in patent US12404303B2, “Polypeptide and use thereof” (NANJING ANJI BIOLOGICAL TECHNOLOGY CO., LTD., priority 2019, dated 2025).
No end group written: not given here.

How the values were obtained:
adenovirus = experiment: Mouse pneumonia model, viral pneumonia; format: in vivo, BALB/C mice; settings: average values±standard deviation
Excerpt: (§1) A mouse pneumonia model was successfully established by using a nasal drip method. BALB/C mice with a body weight of 18-24 g were selected, and then anesthetized with ether on day 0, day 1 and day 2, respectively, prepared streptococcus pneumoniae bacteria solution, adenovirus concentrated solution, mycoplasma pneumoniae, chlamydia pneumoniae, protozoa and pneumonia fungi were slowly dropped into the nasal cavity of the mice, so that the bacteria solutions entered the trachea and bronchi, and the bacteria solutions were prevented from flowing into the esophagus during the operation to avoid inactivation of the bacteria solutions, so that the mouse pneumonia model was established. After the model was successfully established, the polypeptide according to the present disclosure was administered, as shown in FIG. 7 and Table 9. […] The experimental results are represented on the basis of average values±standard deviation.

pneumonia fungi = experiment: Mouse pneumonia model, fungal pneumonia; format: in vivo, BALB/C mice; settings: average values±standard deviation
Excerpt: as §1

mycoplasma pneumoniae = experiment: Mouse pneumonia model, mycoplasma pneumonia; format: in vivo, BALB/C mice; settings: average values±standard deviation
Excerpt: as §1

protozoa = experiment: Mouse pneumonia model, protozoal pneumonia; format: in vivo, BALB/C mice; settings: average values±standard deviation
Excerpt: as §1

chlamydia pneumoniae = experiment: Mouse pneumonia model, chlamydia pneumonia; format: in vivo, BALB/C mice; settings: average values±standard deviation
Excerpt: as §1

streptococcus pneumoniae = experiment: Mouse pneumonia model, bacterial pneumonia; format: in vivo, BALB/C mice; settings: average values±standard deviation
Excerpt: as §1

pulmonary infections = experiment: Mouse pneumonia model, pneumonia caused by pulmonary infections; format: in vivo, BALB/C mice; settings: average values±standard deviation
Excerpt: as §1

[1] = test system: SD rats with bleomycin-induced pulmonary fibrosis; experiment: Bleomycin-induced pulmonary fibrosis animal model; format: in vivo; settings: bleomycin 5 mg/kg intratracheal, polypeptides 7.5 mg/kg subcutaneous twice a day, positive drug 25 mg/kg intragastric once a day, 14 days
Protocol: SD rats were anesthetized by intraperitoneal injection of 1 mL/100 g 4% chloral hydrate. After anesthesia, the rats were fixed and their necks were disinfected by using cotton with 75% alcohol. The skin of the rat neck was longitudinally cut with scissors, and the fascia and muscle were longitudinally bluntly torn with tweezers to expose the trachea. A syringe was inserted into the trachea to inject 5 mg/kg bleomycin, while a blank group was injected with an equal amount of normal saline. Then a rat plate was quickly erected and rotated, the rats' breathing was observed, the neck wound was sterilized after rotation and was sewn, and an amoxicillin anti-inflammatory drug was sprinkled on the suture. After the operation, the rats were put back into a dry and clean cage for resting, waiting was performed for awakening. The rats were awakened after about 1-2 hours, and then fed normally. On the 7th day after modeling, modeling group animals randomly fell into a model group, a Nintedanib positive drug group, polypeptide I, II, III and IV dosage groups, and a normal control group, and the groups were administered separately for an administration cycle of 14 days. Living situations of rats were observed every day and their weights were weighed.

myelofibrosis model mice = experiment: Myelofibrosis model induced by rh EPO; format: in vivo, Kunming mice; design: WBC / Hb / MCV / RDW: unit not given here; settings: 10 mg/kg subcutaneous twice a day, 28 days; for content of TGF-β1 in serum: mouse serum, vs model group, FIG. 5; for Hb / MCV / RDW / WBC: peripheral blood
Protocol: There were 10 mice in each group. The normal control group was injected with normal saline (0.3 mL for each mouse), and the remaining groups were injected with rh EPO (0.1 unit/gram, body weight, 0.3 mL for each mouse) intraperitoneally every day. After induction for two days, drug therapy was started, subcutaneous injection was given twice a day, and after continuous administration for 28 days, the mouse heart was punctured for blood extraction, some blood was used for peripheral blood analysis, some blood was centrifuged, and the supernatant was taken to measure the content of TGF-β1 in the serum of mice. [table]

[2] = test system: cardiac fibroblasts of rats; experiment: Proliferation of cardiac fibroblasts of rats (MTT, in vitro myocardial fibrosis model); format: cell-based; settings: 1 μmol/L; for Optical density values, 12 hours / Optical density values, 24 hours / Optical density values, 48 hours: MTT, 570 nm; for inhibition of the proliferation of cardiac fibroblasts of rats: at 24 hours and 48 hours
Protocol: The inhibitory effect of a polypeptide on cardiac fibroblasts of rats was detected by MTT assay. Cells were cultured in a DMEM medium containing 10% of FBS, the cytoplasm was made into 1×10^5/mL cell suspension, and 100 μL per well was inoculated into a 96-well plate. After the cells adhered to the wall, the medium was replaced with a serum-free DMEM medium, and the serum-free medium was discarded after 24 hours. The cells were cultured with different polypeptides of 1 μmol/L, and 5 multiple wells were set for each concentration. After 12, 24 and 48 hours separately, 10 μL of MTT was added to each well. After 4 hours, MTT was sucked out, and 150 μL of DMSO was added to each well. After reaction for 5 min, an OD value was measured at 570 nm by a microplate reader.

[3] = test system: SD rats with renal fibrosis; experiment: Renal fibrosis animal model (ureter ligation), TGF-β1 in serum; format: in vivo; settings: 7.5 mg/kg subcutaneous twice a day, 14 days, vs model group; FIG. 4
Protocol: A renal fibrosis animal model was established. SD rats were anesthetized with 4% chloral hydrate, injected with 1 mL/100 g intraperitoneally, fixed to an operation board, and sterilized in an operation area for later use. […] Muscular layers and abdominal walls were sewed layer by layer, the suture was disinfected with alcohol. After SD rats woke up, the rats were put into a cage for feeding. In the blank group, ureter was not ligated, and other steps were the same. Then, the animals fell into a blank group, a model group, and polypeptide administration groups, and the administration was started on the second day after the operation, twice a day for 14 days. After administration for 14 days, blood was taken and supernatant was taken to detect the content of TGF-β1 in serum. [table]

skin fibrosis model mice = experiment: Skin fibrosis model induced by bleomycin, HYP in skin tissue; format: in vivo, C57/BL black mice; settings: skin tissue of the mouse back; 10 mg/kg subcutaneous twice a day, 28 days, vs model group; FIG. 6
Protocol: Bleomycin (10 μg/mL) was injected subcutaneously every day for 28 days to form skin fibrosis. During the modeling period, the administration groups were given polypeptide drugs every day for treatment, with 10 mice in each group. After modeling, the mice were killed on the next day, and the skin tissue of the mouse back was taken to detect the content of HYP in the skin tissue. [table]

LX-2 cells = experiment: Proliferation of LX-2 cells induced by TGF-β1 (MTT, in vitro hepatic fibrosis model); format: cell-based; settings: polypeptide 1 μmol/L, TGF-β1 10 ng/mL, 48 hours; for OD value: MTT, 570 nm
Protocol: LX-2 cells were cultured in 1640 medium containing 10% FBS, and cultured in an incubator with 5% CO2 at 37° C. The medium was replaced every two days, and subcultured according to the cell density. The LX-2 cells in a logarithmic growth phase were digested with 0.25% pancreatin to make cell suspension. The density of the cells was adjusted to 4×10^5 cells/mL, and the cells were inoculated into 96-well plates with 100 μL per well and cultured overnight. On the second day, TGF-β1 was added to induce the proliferation and activation of the LX-2 cells, and the polypeptide drugs were administrated at 1 μmol/L. TGF-β1 (10 ng/mL) was added to each group except the blank group. The cells were cultured in the incubator for 48 hours, and then 10 μL of MTT was added to each well. The MTT was removed after 4 hours, and 150 μL of DMSO was added for reaction for 5 min. An OD value was measured by a microplate reader at 570 nm.

## Penicillin [reference compound]
adenovirus
  Inhibitory effect on pulmonary infections, Viral pneumonia: 38.07 ± 2.27
Pneumonia fungi
  Inhibitory effect on pulmonary infections, Fungal pneumonia: 38.61 ± 3.82
Mycoplasma pneumoniae
  Inhibitory effect on pulmonary infections, Mycoplasma pneumonia: 41.77 ± 5.73
protozoa
  Inhibitory effect on pulmonary infections, Protozoal pneumonia: 39.04 ± 3.71
Chlamydia pneumoniae
  Inhibitory effect on pulmonary infections, Chlamydia pneumonia: 30.75 ± 3.31
Streptococcus pneumoniae
  Inhibitory effect on pulmonary infections, Bacterial pneumonia: 35.05 ± 5.75
Pulmonary infections
  Inhibitory effect on pulmonary infections, Pneumonia caused by pulmonary infections: 35.67 ± 4.55

## RGADRAGGGGPRCYCGE (cysteine pairing not given here) [Polypeptide IV]
adenovirus
  Inhibitory effect on pulmonary infections, Viral pneumonia: 58.07 ± 2.07
Pneumonia fungi
  Inhibitory effect on pulmonary infections, Fungal pneumonia: 48.61 ± 3.22
Mycoplasma pneumoniae
  Inhibitory effect on pulmonary infections, Mycoplasma pneumonia: 43.27 ± 5.63
protozoa
  Inhibitory effect on pulmonary infections, Protozoal pneumonia: 49.04 ± 3.17
Chlamydia pneumoniae
  Inhibitory effect on pulmonary infections, Chlamydia pneumonia: 38.85 ± 3.11
[1]
  Survival rate (%): 92.9%
Myelofibrosis model mice
  content of TGF-β1 in serum: highly significantly different from the model group (**P<0.01)
  Hb: 155 ± 16
  MCV: 54 ± 5
  RDW: 24 ± 1
  WBC: 5.83 ± 1.07
Streptococcus pneumoniae
  Inhibitory effect on pulmonary infections, Bacterial pneumonia: 45.05 ± 3.25
[2]
  Optical density values, 12 hours: 0.309 ± 0.010
  Optical density values, 24 hours: 0.385 ± 0.008
  Optical density values, 48 hours: 0.598 ± 0.013
  inhibition of the proliferation of cardiac fibroblasts of rats: could inhibit the proliferation
[3]
  content of TGF-β1 in serum: highly significantly different from the model group (**P<0.01)
Skin fibrosis model mice
  expression of HYP in the skin tissue: highly significantly different from the model group (*P<0.05)
LX-2 cells
  inhibition of proliferation and activation of LX-2 cells, difference from model group: significantly different from the model group (*P<0.05)
  OD value: 0.64 ± 0.03
Pulmonary infections
  Inhibitory effect on pulmonary infections, Pneumonia caused by pulmonary infections: 55.57 ± 4.25

## RGADRAGGGGPRCWRGE [Polypeptide I]
adenovirus
  Inhibitory effect on pulmonary infections, Viral pneumonia: 58.00 ± 6.84
Pneumonia fungi
  Inhibitory effect on pulmonary infections, Fungal pneumonia: 45.65 ± 9.68
Mycoplasma pneumoniae
  Inhibitory effect on pulmonary infections, Mycoplasma pneumonia: 41.48 ± 5.55
protozoa
  Inhibitory effect on pulmonary infections, Protozoal pneumonia: 48.16 ± 5.46
Chlamydia pneumoniae
  Inhibitory effect on pulmonary infections, Chlamydia pneumonia: 45.18 ± 7.46
[1]
  Survival rate (%): 78.6%
Myelofibrosis model mice
  content of TGF-β1 in serum: highly significantly different from the model group (**P<0.01)
  Hb: 143 ± 23
  MCV: 52 ± 4
  RDW: 31 ± 2
  WBC: 5.97 ± 1.76
Streptococcus pneumoniae
  Inhibitory effect on pulmonary infections, Bacterial pneumonia: 43.83 ± 7.59
[2]
  Optical density values, 12 hours: 0.326 ± 0.006
  Optical density values, 24 hours: 0.392 ± 0.008
  Optical density values, 48 hours: 0.580 ± 0.012
  inhibition of the proliferation of cardiac fibroblasts of rats: could inhibit the proliferation
[3]
  content of TGF-β1 in serum: highly significantly different from the model group (**P<0.01)
Skin fibrosis model mice
  expression of HYP in the skin tissue: highly significantly different from the model group (***P<0.001)
LX-2 cells
  inhibition of proliferation and activation of LX-2 cells, difference from model group: significantly different from the model group (*P<0.05)
  OD value: 0.66 ± 0.02
Pulmonary infections
  Inhibitory effect on pulmonary infections, Pneumonia caused by pulmonary infections: 52.47 ± 7.88

## RGADRAGGGGPRCYRGE [Polypeptide III]
adenovirus
  Inhibitory effect on pulmonary infections, Viral pneumonia: 65.49 ± 9.94
Pneumonia fungi
  Inhibitory effect on pulmonary infections, Fungal pneumonia: 62.88 ± 5.49
Mycoplasma pneumoniae
  Inhibitory effect on pulmonary infections, Mycoplasma pneumonia: 43.93 ± 5.34
protozoa
  Inhibitory effect on pulmonary infections, Protozoal pneumonia: 64.29 ± 8.07
Chlamydia pneumoniae
  Inhibitory effect on pulmonary infections, Chlamydia pneumonia: 54.40 ± 5.41
[1]
  Survival rate (%): 78.6%
Myelofibrosis model mice
  content of TGF-β1 in serum: highly significantly different from the model group (**P<0.01)
  Hb: 145 ± 17
  MCV: 53 ± 8
  RDW: 28 ± 1
  WBC: 5.79 ± 1.23
Streptococcus pneumoniae
  Inhibitory effect on pulmonary infections, Bacterial pneumonia: 42.29 ± 8.76
[2]
  Optical density values, 12 hours: 0.329 ± 0.012
  Optical density values, 24 hours: 0.402 ± 0.012
  Optical density values, 48 hours: 0.612 ± 0.018
  inhibition of the proliferation of cardiac fibroblasts of rats: could inhibit the proliferation
[3]
  content of TGF-β1 in serum: highly significantly different from the model group (**P<0.01)
Skin fibrosis model mice
  expression of HYP in the skin tissue: highly significantly different from the model group (*P<0.05)
LX-2 cells
  inhibition of proliferation and activation of LX-2 cells, difference from model group: significantly different from the model group (*P<0.05)
  OD value: 0.63 ± 0.03
Pulmonary infections
  Inhibitory effect on pulmonary infections, Pneumonia caused by pulmonary infections: 56.18 ± 3.31

## COC(=O)c1ccc2c(c1)NC(=O)/C2=C(\Nc1ccc(N(C)C(=O)CN2CCN(C)CC2)cc1)c1ccccc1 [Positive drug, Nintedanib, reference compound]
[1]
  Survival rate (%): 85.7%
